Experimental data: US9957484B2, “Methods for promoting cell reprogramming” (Sanford-Burnham Medical Research Institute, priority 2011, dated 2018)

Assays:
[1] = test system: MEFs during reprogramming; test: Alkaline phosphatase (AP)+ colony formation during reprogramming; format: cell-based, mouse; details: molecule applied during reprogramming
[2] = test system: 4F-transduced Oct4-GFP MEFs; test: Kinase inhibitor treatment of 4F-transduced Oct4-GFP MEFs, Oct4-GFP+ colony count (reprogramming efficiency); format: cell-based, mouse; details: for reprogramming, Oct4-GFP+ colonies, dose/response: 0.5 μM, drug from day 3, colonies at day 13; for reprogramming, Oct4-GFP+ colonies: secondary screen; for iPSC generation in non-permissive conditions: 4F expression too low to reprogram vehicle-treated MEFs, GFP+ colonies at day 12-13; for iPSC generation when p53 is silenced by shRNA: 4F plus p53 shRNA, inhibitor from day 3, GFP+ colonies at day 12
Method: MEFs were cultured in DMEM (Invitrogen, 11995-065) with 10% FBS (Invitrogen) plus glutamine and NEAA. Only MEFs at passage of 0 to 4 were used for reprogramming. pMX-Oct4, Sox2, Klf4 and cMyc were purchased from Addgene. […] Viruses were harvested and combined 2 days later. For reprogramming, MEFs were seeded in 12-well plates and transduced with 4F virus the next day with 4 ug/ml Polybrene. One day later, the medium was changed to fresh MEF medium, and 3 days later it was changed to mES culture medium supplemented with LIF (Millipore, ESG1107). GFP+ colonies were picked at day 14 post-transduction, and expanded clones were cultured in DMEM with 15% FBS (Hyclone) plus LIF, thioglycerol, glutamine and NEAA. Irradiated CF1 MEFs served as feeder layers to culture mES cells and derived iPS clones.
All compounds are well-characterized protein kinase inhibitors. Compounds were diluted to 2 mM in 96-well plates. 4F-transduced cells were seeded into gelatin coated plates (4000 cells/well). Inhibitors were added every other day until day 13. Cells were then fixed with 4% paraformaldehyde for 20 min at room temperature and number of Oct4-GFP+ colonies was directly counted under a microscope. Cells were then stained with Vector red alkaline phosphatase substrate kit I™ (Vector laboratories, SK5100).
To define signaling mechanisms underlying reprogramming, a double-blind screen of 244 well-characterized cell-permeable protein kinase inhibitors was undertook to identify kinases that enhance or inhibit the process. Mouse embryonic fibroblasts from a transgenic line in which GFP expression is driven by the endogenous Oct4 promoter were chosen as the starting material for a reporter cell line of somatic cell reprogramming. Fully reprogrammed cells switch on endogenous Oct4 expression, making resultant iPS colonies GFP-positive and enabling quantification of reprogramming efficiency. To minimize well-to-well variation, MEFs were first transduced with 4F factors in bulk (FIG. 9A) and then reseeded at 3000 cells/well into gelatin-coated 96-well plates before inhibitor treatment. Starting at day 3 post-transduction, inhibitors were added at a final concentration of 2 μM and media were refreshed every other day with mES culture medium plus inhibitor. At day 13 post-transduction, plates were fixed in 4% paraformaldehyde and GFP-positive colonies were directly quantified microscopically.
Two columns of wells from each plate (columns 1 and 12) were treated with DMSO (vehicle) only and served as controls.

[3] = test system: GSK3β; test: Western blotting of phospho- and total GSK3β; format: cell-based, mouse; details: 4F-infected MEFs
Method: 4F-infected MEFs were treated with different doses of B6 inhibitor starting at day 3 post-infection for 48 hrs before being harvested for western blotting analysis.
The experiment was the same as FIG. 5C. Actin served as the loading control.
4F-infected MEFs were treated with 1 μM each of Akt inhibitor (Akt X) and B6.
Membranes were blocked with 5% milk in TBST for at least 1 hr at room temp or overnight at 4° C.

[4] = test system: Aurora A kinase; test: Western blotting of Aurora A kinase protein; format: cell-based, mouse; details: wild type and 4F-infected MEFs (B6 1 μM, 2 days); 4F-infected MEFs (MLN8237, 48 hrs)
Method: FIGS. 13A-13h are a series of graphical representations depicting Aurora A kinase inhibition by B6 promoting Akt mediated inactivation of GSK3β. FIG. 13A is a western blot showing B6 treatment increases aurora A kinase protein levels. Both 4F-infected (day 3) and mock MEFs were treated with 1 μM B6 for 2 days and cells were harvested for western blotting of Aurora A kinase. Actin served as loading control.
Cells were harvested 48 hrs after drug treatment for western blotting analysis of AurkA protein. Actin serves as loading control.
Western blotting: Total cell lysates were prepared by incubating cells in MPER buffer (PIERCE, 78503) on ice for 20 min, and then cleared by centrifugation at 13,000 rpm for 10 min. An equal volume of lysates was loaded onto 10% SDS-PAGE gels, and proteins were transferred to PVDF membranes (Bio-Rad, 1620177) using the semi-dry system (Bio-Rad). Membranes were blocked with 5% milk in TBST for at least 1 hr at room temp or overnight at 4° C. Antibodies used include: anti-mNanog (R&D, AF2729), anti-h/mSSEA1 (R&D, MAB2156), anti-Actin (Thermo, MS1295P0), anti-AFP (Abcam, ab7751), anti-Beta III tubulin (R&D systems, MAB1368), and anti-alpha actinin (Sigma, A7811), anti-mAurkA (Bethyl lab, A300-072A), anti-hAurkA (Bethyl lab, A300-071A), total-GSK3β (Cell signaling technology, 9315S), phospho-GSK3β (Cell Signaling Technology, 9323S).

[5] = test system: 4F-infected MEFs; test: Cell cycle analysis, PI staining and flow cytometry; format: cell-based, mouse; details: for cell cycle progression: various concentrations, 48 hr
Method: FIG. 24A is a series of images of DNA analysis by flow cytometry. 4F-infected MEFs were treated with different concentrations of B6 at day 3 post-infection. Cells were harvested after 48 hr of drug treatment, subjected to PI staining and analyzed for DNA content by flow cytometry.
FIG. 24B is a series of images of DNA analysis by flow cytometry. […] The experimental procedure was as in FIG. 24A.
Cell cycle analysis: MEFs or 4F-infected MEFs were treated with inhibitors for two days and then harvested and trypsinized before fixing in 75% ethanol overnight. Cells were centrifuged at 1000 rpm for 5 min, washed once with PBS, and treated with PI staining solution for at least 30 min at room temperature before flow cytometry analysis. ˜20000 events per sample were collected per analysis and cell cycle data was modeled using ModFit™.

[6] = test system: Aurora A kinase mRNA; test: RT-qPCR of Aurora A kinase mRNA; format: cell-based, mouse; details: 4F-infected MEFs, 1 μM, 2 days
Method: MEFs were infected with 4F for 3 days and treated under mock conditions or with DMSO or 1 μM B6 for 2 days prior to RT-qPCR analysis of total RNA.
(§1) mRNA quantitative PCR: Total RNAs were extracted using Trizol (Invitrogen). After extraction, 1 ug total RNA was used for RT using Superscript II™ (Invitrogen). Quantitative PCR was performed using a Roche LightCycler480™ II and the Sybr green mixture from Abgene (Ab-4166). Other primers were previously described (Takahashi et al. 2006 Cell 126:663-76).

[7] = test system: mES cells; test: mES cell self-renewal and differentiation in LIF+ and LIF− conditions; format: cell-based, mouse; details: 0.5 μM and 1 μM, 4 days
Excerpt: Cells were harvested for RNA extraction and RT-qPCR of indicated mES self-renewal genes.
LIF withdrawal in both B6-treated and DMSO control cells promoted mES cell differentiation, as indicated by loss of colonies, based on morphology and AP staining (data not shown).

[8] = test system: Pdk1, Src, Pten and p85α; test: RT-qPCR of genes upstream of Akt; format: cell-based, mouse; details: MEFs transduced with 4F for three days, then 1 μM for two days
Method: FIG. 22, is a graph plotting relative mRNA levels in MEFs. […] MEFs were first transduced with 4F for three days and then treated for another two days with DMSO or 1 μM B6. Total RNAs were harvested and analyzed for indicated factors, which reportedly function upstream of Akt.
as §1

[9] = target: Cdk7/H/MAT1 (Homo sapiens, UniProt P50613); details: read-out: Potential Targets: Cdk7/H/MAT1, IC50; cited from earlier work
Cdk7/H/MAT1, sequence (P50613 whole entry, species assumed): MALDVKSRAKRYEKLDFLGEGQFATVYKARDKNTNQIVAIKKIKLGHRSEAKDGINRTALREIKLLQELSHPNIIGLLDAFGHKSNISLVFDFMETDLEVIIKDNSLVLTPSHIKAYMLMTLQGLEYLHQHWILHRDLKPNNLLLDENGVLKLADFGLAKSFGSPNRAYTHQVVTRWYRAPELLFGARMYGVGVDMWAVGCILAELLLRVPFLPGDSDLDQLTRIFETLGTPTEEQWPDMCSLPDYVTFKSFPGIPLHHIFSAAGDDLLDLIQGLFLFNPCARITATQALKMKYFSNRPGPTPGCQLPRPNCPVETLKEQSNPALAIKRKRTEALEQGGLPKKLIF
Cdk7/H/MAT1, sequence (P51946 whole entry partner, species assumed): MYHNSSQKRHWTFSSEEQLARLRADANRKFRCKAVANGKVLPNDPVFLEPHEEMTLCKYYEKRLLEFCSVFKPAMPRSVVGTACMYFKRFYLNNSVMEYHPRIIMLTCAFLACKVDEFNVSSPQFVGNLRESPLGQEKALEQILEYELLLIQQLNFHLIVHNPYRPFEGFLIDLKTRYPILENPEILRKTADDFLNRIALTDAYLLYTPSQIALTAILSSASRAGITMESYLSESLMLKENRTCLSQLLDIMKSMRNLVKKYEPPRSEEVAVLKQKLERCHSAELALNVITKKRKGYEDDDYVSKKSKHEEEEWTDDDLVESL
Cdk7/H/MAT1, sequence (P51948 whole entry partner, species assumed): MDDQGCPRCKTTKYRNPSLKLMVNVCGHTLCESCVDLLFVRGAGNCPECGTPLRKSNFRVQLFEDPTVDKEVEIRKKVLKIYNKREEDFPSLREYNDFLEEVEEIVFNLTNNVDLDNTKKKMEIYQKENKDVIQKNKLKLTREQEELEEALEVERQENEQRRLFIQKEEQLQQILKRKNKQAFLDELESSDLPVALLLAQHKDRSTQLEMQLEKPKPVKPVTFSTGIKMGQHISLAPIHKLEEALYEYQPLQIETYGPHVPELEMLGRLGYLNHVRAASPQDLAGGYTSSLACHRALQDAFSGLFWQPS

[10] = target: Cdk3/E (Homo sapiens, UniProt Q00526); details: read-out: Potential Targets: Cdk3/E, IC50; cited from earlier work
[11] = target: Cdk1/B (Homo sapiens, UniProt P06493); details: read-out: Potential Targets: Cdk1/B, IC50; cited from earlier work
Cdk1/B, sequence (P06493 whole entry, species assumed): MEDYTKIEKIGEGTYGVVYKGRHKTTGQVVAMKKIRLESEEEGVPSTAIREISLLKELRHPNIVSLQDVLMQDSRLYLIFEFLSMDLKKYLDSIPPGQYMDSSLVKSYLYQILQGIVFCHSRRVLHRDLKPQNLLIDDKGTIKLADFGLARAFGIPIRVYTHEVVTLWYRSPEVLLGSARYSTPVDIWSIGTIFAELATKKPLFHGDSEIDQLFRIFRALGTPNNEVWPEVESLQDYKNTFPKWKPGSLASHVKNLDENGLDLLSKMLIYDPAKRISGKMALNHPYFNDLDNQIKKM
Cdk1/B, sequence (P14635 whole entry partner, species assumed): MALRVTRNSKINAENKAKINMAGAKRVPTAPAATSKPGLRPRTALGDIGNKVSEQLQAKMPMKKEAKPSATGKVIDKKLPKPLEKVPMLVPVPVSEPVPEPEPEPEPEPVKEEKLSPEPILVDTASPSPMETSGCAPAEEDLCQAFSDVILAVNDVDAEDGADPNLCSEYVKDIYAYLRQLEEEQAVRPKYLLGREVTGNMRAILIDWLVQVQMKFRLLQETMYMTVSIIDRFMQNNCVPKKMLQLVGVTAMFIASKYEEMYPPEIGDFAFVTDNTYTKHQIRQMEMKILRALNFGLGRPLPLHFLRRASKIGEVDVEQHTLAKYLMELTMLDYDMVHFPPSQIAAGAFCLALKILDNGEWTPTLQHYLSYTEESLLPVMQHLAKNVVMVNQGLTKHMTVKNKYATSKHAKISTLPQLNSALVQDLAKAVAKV

[12] = target: Cdk2/E (Homo sapiens, UniProt P24941); details: read-out: Potential Targets: Cdk2/E, IC50; cited from earlier work
[13] = target: Cdk5/p35 (Homo sapiens, UniProt Q00535); details: read-out: Potential Targets: Cdk5/p35, IC50; cited from earlier work
Cdk5/p35, sequence (Q00535 whole entry, species assumed): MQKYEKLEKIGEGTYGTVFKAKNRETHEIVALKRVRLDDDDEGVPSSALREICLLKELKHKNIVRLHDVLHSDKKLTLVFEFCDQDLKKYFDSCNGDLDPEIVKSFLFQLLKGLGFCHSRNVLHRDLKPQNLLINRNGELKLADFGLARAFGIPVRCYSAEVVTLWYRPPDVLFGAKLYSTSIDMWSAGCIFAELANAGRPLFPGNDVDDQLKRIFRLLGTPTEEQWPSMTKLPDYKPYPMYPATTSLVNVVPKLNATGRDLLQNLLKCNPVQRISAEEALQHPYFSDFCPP
Cdk5/p35, sequence (Q15078 whole entry partner, species assumed): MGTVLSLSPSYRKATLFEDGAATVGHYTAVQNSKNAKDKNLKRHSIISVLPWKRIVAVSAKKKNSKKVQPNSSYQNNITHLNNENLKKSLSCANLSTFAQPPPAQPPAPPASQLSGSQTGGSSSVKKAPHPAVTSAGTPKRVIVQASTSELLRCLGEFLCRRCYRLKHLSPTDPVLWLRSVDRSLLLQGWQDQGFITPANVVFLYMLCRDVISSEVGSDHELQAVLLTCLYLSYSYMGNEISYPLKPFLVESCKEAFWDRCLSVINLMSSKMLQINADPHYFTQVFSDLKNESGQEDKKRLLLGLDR

[14] = test system: uninfected MEFs; test: Cell proliferation assay (Celltiter 96 aqueous), uninfected MEFs; format: cell-based, mouse; details: 0.5 μM
Method: (§2) MEFs were treated with drugs at 2 μM and proliferation was assayed by using the Celltiter 96™ aqueous method (Promega). Y-axis represents the absorbance at 490 nm to detect formazan, which is converted from MTS tetrazolium by living cells. A higher reading indicates increased cell number. […] Oct4-GFP+ colonies were quantified at day 13.
(§3) FIG. 16A is a graph plotting relative cell viability. 4F-infected MEFs were seeded in 96-well plates and 0.5 μM of three inhibitors was added at day 3 after transduction (Day 0 in dataset). Proliferation of cells was analyzed every other day using the Celltiter 96™ aqueous method (Promega). FIG. 16B is a graph plotting relative cell viability. […] The experimental procedure is the same as in FIG. 16A.
(§4) Cell proliferation assay: 3000 MEFs were seeded in each well in 96-well plates and transduced with 4F virus for three days. Cells were then treated with inhibitors at 0.5 μM and harvested every other day. Cells were incubated with mES medium containing Celltiter 96 Aqueous™ one solution (Promega, G3580) for 1 hr in tissue culture incubator. Absorbance at 490 nm was then measured for each well using a plate reader, and data was used to generate relative proliferation curves using the signal from day 3 post-transduction as a reference.

[15] = test system: 4F-infected MEFs; test: Cell proliferation assay (Celltiter 96 aqueous), 4F-infected MEFs; format: cell-based, mouse; details: 4F-transduced MEFs, 0.5 μM
Method: as §2, §3, §4

[16] = test system: Nanog, Tet1 and Eras; test: RT-qPCR of mES-specific genes in 4F-transduced MEFs; format: cell-based, mouse; details: day 14 post transduction
Method: Data is derived from analysis of three independent wells. FIG. 23B is a histogram of relative mRNA level. […] Cells were harvested at day 14 post 4F transduction. […] Shown are data derived from three independent wells.
as §1

[17] = test system: OSKM-transduced Oct4-EGFP MEFs; test: OSKM-induced reprogramming with small molecules, GFP+ colonies; format: cell-based, mouse; details: treated four days after OSKM transduction for at least 10 days, vs DMSO
Method: All 17 molecules are tested by examining alkaline phosphatase (AP)+ colony formation during reprogramming while these molecules were applied. […] To evaluate their effect on induction of mature GFP+ iPS cells, OSKM-transduced Oct4-EGFP MEFs are treated four days after transduction with each of these factors separately.
Oct4-EGFP MEFs are transduced with OSKM and four days later treated with individual small molecules for at least 10 days. GFP+ colonies are identified. Error bars represent standard deviations of three independent experiments. *p value<0.05; **p value<0.005.

[18] = 12-well plates, 2 μM, drug from day 3, colonies at day 13, vs DMSO

Compound: 4-hydroxytamoxifen
- effect on AP+ colony formation [1]: not showing adverse effect on AP+ colony formation

Compound: CCN(CC)CCCCN1c2ccccc2Oc2ccc(Cl)cc21 [Akt X]
- reprogramming ([2]; 1 μM, triplicate wells): compromises reprogramming
- GSK3β phosphorylation ([3]; 1 μM each of Akt X and B6): diminished

Compound: O=C(Nc1cccc(Nc2nccc(Nc3cccc(C(F)(F)F)c3)n2)c1)C1CC1 [BIM-0086660]
- reprogramming, Oct4-GFP+ colonies, dose/response [2]: potent enhancers
- reprogramming, Oct4-GFP+ colonies ([2]; 1 μM, vs DMSO): enhanced reprogramming more robustly at 1 μM than at 2 μM
- AurkA protein levels [4]: increased AurkA protein levels relative to untreated cells
- cell cycle progression [5]: little change in cell cycle progression
- AurkA mRNA levels [6]: not significantly altered
- GSK3β total protein levels ([3]; 48 hrs): unchanged
- phospho-GSK3β ([3]; different doses from day 3 post-infection for 48 hrs): significant increase in phospho-GSK3β
- Oct4 expression in mES cells [7]: very small increase
- mES self-renewal or differentiation ([7]; LIF+ and LIF−): a significant effect on either mES self-renewal (in the presence of LIF) or differentiation (following LIF withdrawal) was not seen
- expression levels of genes upstream of Akt (Pdk1, Src, Pten, p85α) [8]: significant changes were not observed

Compound: Cc1cccc(-c2[nH]c(C(C)(C)C)nc2-c2ccc3c(c2)OCO3)n1 [BIM-0086716]
- reprogramming, Oct4-GFP+ colonies [2, 18]: consistently and significantly enhanced reprogramming

Compound: CC(C)c1nn(-c2c(Cl)cccc2Cl)c2nc(Cc3ccc(OCCO)cc3)[nH]c(=O)c12 [BIM-0086744]
- IC50 [9]: 9 nM
- IC50 [10]: 10 nM
- IC50 [11]: 48 nM
- IC50 [12]: 9 nM
- IC50 [13]: 71 nM

Compound: O=[N+]([O-])c1ccc(CNc2nc(NCc3cccc(C(F)(F)F)c3)nc3nc[nH]c23)cc1 [BIM-0207164]
- reprogramming, Oct4-GFP+ colonies, dose/response [2]: potent enhancers
- iPSC generation in non-permissive conditions [2]: enhanced iPSC generation even in non-permissive conditions
- iPSC generation when p53 is silenced by shRNA [2]: equivalent in inhibitor-treated and -untreated conditions
- reprogramming, Oct4-GFP+ colonies [2, 18]: consistently and significantly enhanced reprogramming
- proliferation [14]: did not significantly promote proliferation
- proliferation [15]: did not significantly promote proliferation

Compound: O=S(=O)(c1c(O)c(Cl)cc(Cl)c1Cl)c1c(O)c(Cl)cc(Cl)c1Cl [BIM-0207174]
- reprogramming, Oct4-GFP+ colonies, dose/response [2]: potent enhancers
- iPSC generation in non-permissive conditions [2]: enhanced iPSC generation even in non-permissive conditions
- iPSC generation when p53 is silenced by shRNA [2]: equivalent in inhibitor-treated and -untreated conditions
- reprogramming, Oct4-GFP+ colonies [2, 18]: consistently and significantly enhanced reprogramming
- proliferation [14]: did not significantly promote proliferation
- proliferation [15]: did not significantly promote proliferation

Compound: COC(=O)[C@H]1[C@H]2C[C@H]3c4[nH]c5ccccc5c4CCN3C[C@@H]2CC[C@@H]1O.Cl [Corynanthine, Corynanthine hydrochloride]
- effect on AP+ colony formation [1]: not showing adverse effect on AP+ colony formation

Compound: COc1cc(Nc2ncc3c(n2)-c2ccc(Cl)cc2C(c2c(F)cccc2OC)=NC3)ccc1C(=O)O [MLN8237]
- enhancement of reprogramming ([2]; 10 nM, from day 3 for 10 days): approximately 4 fold
- number of GFP+ colonies ([2]; 100 nM): significant increase in the number of GFP+ colonies
- AurkA protein levels [4]: Increased AurkA protein levels
- cell cycle ([5]; 10 nM): did not alter the cell cycle
- number of cells in G2 ([5]; 100 nM): increased the number of cells in G2
- cell cycle progression [5]: little change in cell cycle progression
- mES-specific gene expression [16]: increases in mES-specific gene expression

Compound: O=C(NCCN1CCOCC1)c1ccc(Cl)cc1 [Moclobemide]
- effect on AP+ colony formation [1]: not showing adverse effect on AP+ colony formation

Compound: COc1ccc2cc(CCC(C)=O)ccc2c1 [Nabumetone]
- effect on AP+ colony formation [1]: not showing adverse effect on AP+ colony formation
- increase in number of reprogrammed colonies [17]: at least 2.8 fold
